# Target: T1, PI3K-alpha enzyme (Homo sapiens, UniProt P42336)
# T1 construct: purchased Millipore 14-602
# Test: PI3-Kinase (human) HTRF Assay kit, PI3K alpha enzyme IC50 determination
# Assay type: biochemical
# Conditions: ATP 10 μM, PIP2 10 μM, 1% DMSO, double holes for each concentration, read-out: the half inhibitory concentrations (IC50) of the tested compounds on PI3K-alpha
# Experimental: Prepare fresh before each use. […] 1 μL of each was added to 24 μL 1× Reaction Buffer. 5 μL of each diluted solution was added into a 384-well plate and contained 1% DMSO. […] This working solution should be prepared with 0.1-0.2 ml more to meet the control usage and dead volume. […] In a 20 μL kinase reaction system, the concentration of ATP was 10 μM. For example, to prepare 2 ml ATP working solution, take 8 μL 10 mM ATP and add it to 1992 μL 1× reaction buffer.
# T1 sequence (P42336 whole entry): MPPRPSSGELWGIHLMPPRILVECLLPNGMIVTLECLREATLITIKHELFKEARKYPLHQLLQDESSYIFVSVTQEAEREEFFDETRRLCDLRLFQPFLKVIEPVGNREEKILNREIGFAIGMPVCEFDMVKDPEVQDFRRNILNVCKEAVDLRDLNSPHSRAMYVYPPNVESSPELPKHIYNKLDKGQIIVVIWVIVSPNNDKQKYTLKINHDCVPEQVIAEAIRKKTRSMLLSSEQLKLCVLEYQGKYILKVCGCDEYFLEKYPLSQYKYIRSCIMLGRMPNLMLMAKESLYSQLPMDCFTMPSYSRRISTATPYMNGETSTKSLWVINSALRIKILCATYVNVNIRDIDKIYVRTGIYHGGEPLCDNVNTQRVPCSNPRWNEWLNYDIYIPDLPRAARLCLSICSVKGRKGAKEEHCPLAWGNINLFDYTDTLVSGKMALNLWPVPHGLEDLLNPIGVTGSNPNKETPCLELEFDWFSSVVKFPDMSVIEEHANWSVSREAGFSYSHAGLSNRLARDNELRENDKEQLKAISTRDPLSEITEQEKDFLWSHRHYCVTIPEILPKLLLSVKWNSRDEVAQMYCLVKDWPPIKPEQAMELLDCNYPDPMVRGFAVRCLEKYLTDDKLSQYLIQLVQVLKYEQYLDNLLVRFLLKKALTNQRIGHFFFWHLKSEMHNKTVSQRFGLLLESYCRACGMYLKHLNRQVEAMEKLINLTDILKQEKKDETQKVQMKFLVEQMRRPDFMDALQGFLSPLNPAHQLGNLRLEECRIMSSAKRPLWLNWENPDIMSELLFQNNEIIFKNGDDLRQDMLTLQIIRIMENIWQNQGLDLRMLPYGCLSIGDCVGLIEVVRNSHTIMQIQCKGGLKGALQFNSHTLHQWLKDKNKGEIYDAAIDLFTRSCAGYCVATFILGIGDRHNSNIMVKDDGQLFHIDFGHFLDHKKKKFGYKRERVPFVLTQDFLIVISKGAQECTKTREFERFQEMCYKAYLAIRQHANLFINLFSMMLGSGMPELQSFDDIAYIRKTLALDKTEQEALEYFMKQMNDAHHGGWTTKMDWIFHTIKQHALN
# T1 sequence (P27986 whole entry partner): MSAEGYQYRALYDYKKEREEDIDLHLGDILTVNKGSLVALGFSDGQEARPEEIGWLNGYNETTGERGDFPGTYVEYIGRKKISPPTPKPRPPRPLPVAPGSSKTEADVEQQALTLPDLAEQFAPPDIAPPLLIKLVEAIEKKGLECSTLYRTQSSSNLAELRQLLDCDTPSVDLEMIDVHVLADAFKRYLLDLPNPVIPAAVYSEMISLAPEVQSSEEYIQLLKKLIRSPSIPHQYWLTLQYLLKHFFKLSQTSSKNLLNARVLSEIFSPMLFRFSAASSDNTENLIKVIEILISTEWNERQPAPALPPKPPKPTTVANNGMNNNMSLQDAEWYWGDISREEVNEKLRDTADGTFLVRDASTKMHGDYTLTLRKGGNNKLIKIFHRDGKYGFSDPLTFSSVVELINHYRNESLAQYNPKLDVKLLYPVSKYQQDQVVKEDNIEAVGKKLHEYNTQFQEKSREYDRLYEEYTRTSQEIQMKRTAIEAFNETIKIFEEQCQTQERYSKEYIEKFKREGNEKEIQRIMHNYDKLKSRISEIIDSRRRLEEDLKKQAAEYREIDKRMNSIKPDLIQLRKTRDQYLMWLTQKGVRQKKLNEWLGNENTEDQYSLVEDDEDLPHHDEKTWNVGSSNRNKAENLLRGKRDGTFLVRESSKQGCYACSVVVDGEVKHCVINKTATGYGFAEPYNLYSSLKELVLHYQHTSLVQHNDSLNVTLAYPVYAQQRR
row,IC50 [nM],Structure (SMILES)
1,22.6,"O=C(Nc1ccc(CO)cc1)Nc1ccc(-c2nc(N3CCOCC3)c3[nH]cnc3n2)cc1 [RMP-D06, 1-(4-(hydroxymethyl)phenyl)-3-(4-(6-morpholino-7H-purin-2-yl)phenyl)urea]"
2,46.1,"O=C(Nc1ccc(COCCN2CCOCC2)cc1)Nc1ccc(-c2nc(N3CCOCC3)c3[nH]cnc3n2)cc1 [RMP-D08, 1-(4-(6-morpholino-7H-purin-2-yl)phenyl)-3-(4-((2-morpholinoethoxy)methyl)phenyl)urea]"
3,215,"O=C(Nc1ccc(-c2nc(N3CCOCC3)c3[nH]cnc3n2)cc1)Nc1ccc(CO)c(C(F)(F)F)c1 [RMP-D07, 1-(4-(hydroxymethyl)-3-(trifluoromethyl)phenyl)-3-(4-(6-morpholino-7H-purin-2-yl)phenyl)urea]"

# — patent publication US12617792B2, “Purine derivative, intermediate and application thereof in preparing anticancer medicine” (SUZHOU RAYMON PHARMACEUTICALS COMPANY, LTD., priority 2019, dated 2026)
